These results are taken from patent US20210164997A1, “HSP70 PROTEIN LEVELS IN PBMC SAMPLES AS BIOMARKER FOR DISEASE” (Orphazyme A/S, priority 2018, published 2021).

In experiment [1] the test system is Hsp70 (HspA1A and HspA1B) in PBMC. In words: Hsp70 level in PBMC samples of NPC patients treated with arimoclomol (ELISA). Type of experiment: in vivo, human. The procedure: Whole blood samples were collected in 6 mL EDTA tubes at the clinical study sites and shipped ambient to a central laboratory for sample preparation.
Clinical study samples (n=26) were obtained from individuals with Niemann Pick disease Type C (NPC patients), who were 2 to 18 years of age, diagnosed with NPC, had at least one neurological symptom and had preserved ability to walk with assistance. Patients were maintained on standard therapy during the study. Samples were collected at a first clinical study visit (inclusion) and at a second clinical study visit 6 to 14 months following the first visit.
Plasma was separated from whole blood by centrifugation at room temperature. Blood volume was restored in PBS and PBMCs were isolated by density gradient centrifugation using Histopaque™. Viable PBMC cell count was determined by flow cytometry. Aliquots of 1 mio. PBMC were generated and stored frozen at −70° C.
Hsp70 was quantified using the Human/Mouse/Rat total HSP70 DuoSet® IC ELISA kit (R&D Systems). Prior to analysis of the clinical study samples, the analytical method had been qualified for determination of Hsp70 in human PBMC samples. The Human/Mouse/Rat total HSP70 DuoSet® IC ELISA kit detects the levels of HspA1A and HspA1B with no cross-reactivity of HspA5 and HspA8.
The materials and methods were performed as described in Example 1.
The Hsp70 concentration was measured in homogenates of Peripheral Blood Mononuclear Cells (PBMC). Hsp70 was determined in an observational study (FIGS. 4 and 5), at screening (pretreatment) and then again after 6-14 months (baseline). Patients were treated for 12 months with arimoclomol (Clinicaltrials.gov identifier NCT02612129). Hsp70 levels were analyzed by the Wilcoxon signed rank test for the 12 patients on arimoclomol with baseline and 12 months data point comparing the Hsp70 levels before and after 12 months of treatment.

The test system of another experiment is mutant NPC1 mice. To be noted: cited from earlier work.
[2] abbreviates: PBMC homogenates, 12 months of treatment vs baseline, n=12.

Turning to `[O-][n+]1cccc(/C(Cl)=N/OC[C@H](O)CN2CCCCC2)c1` [arimoclomol, N-[2-hydroxy-3-(1-piperidinyl)-propoxy]-pyridine-1-oxide-3-carboximidoyl chloride], in experiment [1] (setting [2]), the “Hsp70 change from baseline, Median” value was determined as 1175.5 pg/mL; the “Hsp70 change from baseline, Min-max” value lay in the range of 234.7 to 6509.0 pg/mL; the “Hsp70 change from baseline, mean (SD)” value is listed as 1815.0 (1754.6) pg/mL. In addition, the “PBMC-level of Hsp70 compared to baseline” value in experiment [1] (treatment for 12 months) was “significantly increased”. Further, in the experiment on mutant NPC1 mice, the “neuronal as well as visceral pathology” value is reported as “reversed” and the “size of the lysosomal compartment” value is listed as “reduced”.
